Measurements taken from the supplement of paper PMC11451515.

Tested on: SEM cells
Experiment: cell viability relative to DMSO control; higher = less cytotoxic
Conditions: 48 h
Method in brief: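 NOMO1, SEM and P12-Ichikawa leukemia cells spent at least four passages adapting to each medium before use. They were seeded at 500 cells/well (NOMO1, SEM) or 1000 cells/well (P12-Ichikawa) in 5 μl in 1536-well plates and pin-dosed with library compounds in DMSO at 11 threefold steps from 47 μM down to 0.79 nM. After 48 h at 37°C, CellTiter-Glo One luminescence was read. Viability is reported as a percentage of the DMSO wells on each plate, with cell-free wells as background.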

[1] = HPLM + 10% dialyzed FBS, 0.000781 µM
[2] = HPLM + 10% dialyzed FBS, 0.00234 µM
[3] = HPLM + 10% dialyzed FBS, 0.00702 µM
[4] = HPLM + 10% dialyzed FBS, 0.0211 µM
[5] = HPLM + 10% dialyzed FBS, 0.0632 µM
[6] = HPLM + 10% dialyzed FBS, 0.19 µM
[7] = HPLM + 10% dialyzed FBS, 0.569 µM
[8] = HPLM + 10% dialyzed FBS, 1.71 µM
[9] = HPLM + 10% dialyzed FBS, 5.12 µM
[10] = HPLM + 10% dialyzed FBS, 15.4 µM
[11] = HPLM + 10% dialyzed FBS, 46.1 µM
[12] = RPMI 5 mM glucose + 10% FBS, 0.000781 µM
[13] = RPMI 5 mM glucose + 10% FBS, 0.00234 µM
[14] = RPMI 5 mM glucose + 10% FBS, 0.00702 µM
[15] = RPMI 5 mM glucose + 10% FBS, 0.0211 µM
[16] = RPMI 5 mM glucose + 10% FBS, 0.0632 µM
[17] = RPMI 5 mM glucose + 10% FBS, 0.19 µM
[18] = RPMI 5 mM glucose + 10% FBS, 0.569 µM
[19] = RPMI 5 mM glucose + 10% FBS, 1.71 µM
[20] = RPMI 5 mM glucose + 10% FBS, 5.12 µM
[21] = RPMI 5 mM glucose + 10% FBS, 15.4 µM
[22] = RPMI 5 mM glucose + 10% FBS, 46.1 µM
[23] = RPMI 5 mM glucose + 10% dialyzed FBS, 0.000781 µM
[24] = RPMI 5 mM glucose + 10% dialyzed FBS, 0.00234 µM
[25] = RPMI 5 mM glucose + 10% dialyzed FBS, 0.00702 µM
[26] = RPMI 5 mM glucose + 10% dialyzed FBS, 0.0211 µM
[27] = RPMI 5 mM glucose + 10% dialyzed FBS, 0.0632 µM
[28] = RPMI 5 mM glucose + 10% dialyzed FBS, 0.19 µM
[29] = RPMI 5 mM glucose + 10% dialyzed FBS, 0.569 µM
[30] = RPMI 5 mM glucose + 10% dialyzed FBS, 1.71 µM
[31] = RPMI 5 mM glucose + 10% dialyzed FBS, 5.12 µM
[32] = RPMI 5 mM glucose + 10% dialyzed FBS, 15.4 µM
[33] = RPMI 5 mM glucose + 10% dialyzed FBS, 46.1 µM

Row | Structure (SMILES) | cell viability [1] [%] | cell viability [2] [%] | cell viability [3] [%] | cell viability [4] [%] | cell viability [5] [%] | cell viability [6] [%] | cell viability [7] [%] | cell viability [8] [%] | cell viability [9] [%] | cell viability [10] [%] | cell viability [11] [%] | cell viability [12] [%] | cell viability [13] [%] | cell viability [14] [%] | cell viability [15] [%] | cell viability [16] [%] | cell viability [17] [%] | cell viability [18] [%] | cell viability [19] [%] | cell viability [20] [%] | cell viability [21] [%] | cell viability [22] [%] | cell viability [23] [%] | cell viability [24] [%] | cell viability [25] [%] | cell viability [26] [%] | cell viability [27] [%] | cell viability [28] [%] | cell viability [29] [%] | cell viability [30] [%] | cell viability [31] [%] | cell viability [32] [%] | cell viability [33] [%]
1 | COC1=C(CC=C(C)C)C2=C(\C=C/C(=O)O2)C=C1 | 83.3 | 79.7 | 80.4 | 89.5 | 76.9 | 90.1 | 74.6 | 98.6 | 71.8 | 71.1 | 58.5 | 93.2 | 103 | 95.4 | 117 | 102 | 112 | 100 | 81.4 | 77.5 | 65.9 | 53.6 | 108 | 118 | 121 | 103 | 99.7 | 113 | 115 | 91.8 | 85 | 90.2 | 54.2
2 | O=C(Nc1cccc2c(=O)cc(-c3nnn[nH]3)oc12)c1ccc(OCCCCc2ccccc2)cc1 | 68.3 | 78.5 | 85.2 | 91.3 | 84.6 | 91.2 | 93 | 96 | 93.8 | 21.4 | 49.2 | 76.6 | 97.5 | 87 | 86.6 | 92.1 | 90.7 | 91.9 | 86.6 | 88.4 | 17.2 | 13.5 | 70.8 | 90.5 | 105 | 96.2 | 99.6 | 92.6 | 102 | 79.9 | 92.8 | 19.2 | 33.2
3 | C=C1C(=O)O[C@@H]2[C@H]3O[C@]3(C)CC/C=C(\C)CC[C@@H]12 | 96.1 | 99.9 | 122 | 104 | 116 | 115 | 98.5 | 40.5 | 4.45 | 3.12 | 4 | 81.4 | 84.9 | 103 | 93.9 | 87.6 | 73 | 69.5 | 19.9 | 2.98 | 1.9 | 2.67 | 104 | 97 | 102 | 114 | 106 | 105 | 95.9 | 42.4 | 3.46 | 1.79 | 3.03
4 | O=C(O)C(=O)Nc1cccc(-c2nnn[nH]2)c1 | 90.2 | 98.2 | 108 | 112 | 109 | 116 | 76.4 | 122 | 132 | 128 | 119 | 91.3 | 112 | 114 | 104 | 106 | 106 | 75.5 | 119 | 120 | 110 | 117 | 98.8 | 101 | 111 | 116 | 119 | 105 | 81.5 | 119 | 132 | 107 | 102
5 | O=P1(NCCCl)OCCCN1CCCl (stereo unspecified) | 88.9 | 85.6 | 92.8 | 101 | 76.1 | 81.2 | 78 | 84.7 | 81.3 | 63 | 12.5 | 92.6 | 99.5 | 101 | 103 | 96.8 | 94.4 | 97.1 | 94.2 | 105 | 57.3 | 7.96 | 87.6 | 86 | 94.8 | 81.9 | 65.5 | 69.1 | 60.6 | 69.5 | 66.4 | 45 | 10.8
6 | N#C[C@@H]1C[C@@H]2C[C@@H]2N1C(=O)[C@@H](N)C12CC3CC(CC(O)(C3)C1)C2 |  |  |  |  |  |  |  |  |  |  |  | 113 | 109 | 105 | 104 | 108 | 96.6 | 102 | 87.5 | 79 | 82.2 | 79.4 | 118 | 115 | 110 | 110 | 111 | 110 | 115 | 108 | 108 | 117 | 94.5
7 | c1cc(N[C@@H]2CCNC2)nc(-c2cnc3ccc(-c4cn[nH]c4)cn23)c1 | 105 | 109 | 136 | 134 | 106 | 98.6 | 81.5 | 78.8 | 74 | 76.5 | 67.2 |  |  |  |  |  |  |  |  |  |  |  |  |  |  |  |  |  |  |  |  |  | 
8 | N[S+](=O)([O-])c1cc2c(cc1Cl)NCN[S+]2(=O)[O-] | 92.5 | 102 | 101 | 94.6 | 104 | 111 | 114 | 109 | 114 | 121 | 107 | 96.2 | 115 | 109 | 104 | 110 | 107 | 114 | 119 | 124 | 116 | 120 | 88.4 | 100 | 112 | 124 | 107 | 124 | 107 | 134 | 117 | 115 | 151
